Structures are written as SMILES.

One test has as its system U937 cells. As to the kind of experiment: EC50 of necroptosis inhibition in U937 cells (TSZ-induced, CellTiter-Glo). The format is cell-based. The note with it: Homo sapiens, U-937; TSZ (hTNF-α, SM-164, Z-VAD-FMK) 20 hours; 10 concentration points; read-out: EC50 intervals of necroptosis inhibition in U937 cells. In short, it runs like this: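 Luminescent ATP readout (CellTiter-Glo) after 20 h gave viability of TSZ-challenged U937 cells; compounds were added 15 min ahead of TNF-α/SM-164/Z-VAD-FMK. EC50 derived by variable-slope nonlinear regression of inhibition relative to no-TSZ and TSZ-alone controls.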
For orientation: ATP-based viability assays read luminescence as a measure of living cells.

The next test concerns the target T1, RIPK1 kinase (Homo sapiens, UniProt Q13546).
T1 construct: purchased Promega VA7593
T1 sequence (Q13546 1-671): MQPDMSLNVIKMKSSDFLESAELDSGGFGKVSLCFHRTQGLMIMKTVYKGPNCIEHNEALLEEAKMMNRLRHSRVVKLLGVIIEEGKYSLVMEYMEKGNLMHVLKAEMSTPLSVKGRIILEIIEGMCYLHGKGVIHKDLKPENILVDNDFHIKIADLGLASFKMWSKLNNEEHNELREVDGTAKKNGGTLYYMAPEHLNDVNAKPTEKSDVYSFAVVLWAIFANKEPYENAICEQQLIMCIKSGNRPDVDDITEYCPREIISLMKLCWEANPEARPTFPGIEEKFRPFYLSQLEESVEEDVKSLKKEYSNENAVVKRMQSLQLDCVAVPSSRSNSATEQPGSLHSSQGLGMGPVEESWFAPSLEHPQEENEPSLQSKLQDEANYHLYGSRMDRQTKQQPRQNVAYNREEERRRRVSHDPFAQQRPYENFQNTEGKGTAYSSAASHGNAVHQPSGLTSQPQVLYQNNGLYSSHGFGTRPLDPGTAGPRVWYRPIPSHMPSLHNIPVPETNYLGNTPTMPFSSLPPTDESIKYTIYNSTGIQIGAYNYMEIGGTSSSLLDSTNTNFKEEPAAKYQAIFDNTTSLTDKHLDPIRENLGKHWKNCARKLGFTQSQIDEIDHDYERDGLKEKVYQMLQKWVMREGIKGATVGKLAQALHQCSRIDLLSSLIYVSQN
Put plainly: In vitro RIPK1 kinase activity IC50 assay (ADP-Glo). The format is biochemical. As to conditions: ATP 10 μM; MBP substrate 100 μg/mL; 8 concentration points; read-out: IC50 range of compounds for RIPK1 kinase activity. In short, it runs like this:
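Human RIPK1 preincubated 15 min at room temperature with compound (8-point 1:5 dilution series, 1% DMSO in kinase buffer D). Reaction then ran 1 h with 10 μM ATP and 100 μg/mL MBP substrate; ADP measured by ADP-Glo luminescence, IC50 from four-parameter nonlinear fit.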
Background: ADP-Glo first removes unused ATP, then detects ADP through luciferase.

In general, EC50 refers to the concentration at which the effect is half-maximal. By IC50 is commonly meant the concentration needed to halve the response being measured. For `COC(=O)C1(C#Cc2ccc3c(c2)N(C)C(=O)[C@@H](NC(=O)C(=O)NCCc2ccccc2)CO3)CC1` [Example 96, methyl (S)-1-((5-methyl-4-oxo-3-(2-oxo-2-(phenethylamino)acetamido)-2,3,4,5-tetrahydrobenzo[b][1,4]oxazepin-7-yl)ethynyl)cyclopropane-1-carboxylate], in the test with U937 cells, the concentration for a half-maximal effect (EC50) was below 100 nM. Moreover, the IC50 at RIPK1 kinase was below 100 nM.

Take `CN1C(=O)[C@@H](NC(=O)C(=O)NCCc2cccs2)COc2ccccc21` [Example 97, (S)—N^1-(5-methyl-4-oxo-2,3,4,5-tetrahydrobenzo[b][1,4]oxazepin-3-yl)-N^2-(2-(thiophen-2-yl)ethyl)oxalamide]: in the test with U937 cells, the half-maximal effective concentration (EC50) was in the range of 100 to 500 nM. In addition, on RIPK1 kinase, the half-maximal inhibitory concentration (IC50) is below 100 nM.

Take `CN1C(=O)[C@@H](NC(=O)C(=O)NCCc2ccsc2)COc2ccccc21` [Example 98, (S)—N-(5-methyl-4-oxo-2,3,4,5-tetrahydrobenzo[b][1,4]oxazepin-3-yl)-N^2-(2-(thiophen-3-yl)ethyl)oxalamide]: the EC50 in the test with U937 cells is 100 to 500 nM. The IC50 on RIPK1 kinase is below 100 nM.

(Values after patent US20250368633A1, “AZEPINE FUSED RING COMPOUND AS RIPK1 INHIBITOR AND USE THEREOF” (ARTIVILA BIOPHARMA, priority 2022, published 2025).)
